These results are taken from PMC4348493, “CD47 Agonist Peptides Induce Programmed Cell Death in Refractory Chronic Lymphocytic Leukemia B Cells via PLCγ1 Activation: Evidence from Mice and Humans” (PLoS Medicine, 2015).

“Also recorded” adds a separate entry of the source. Ends that are not written are not given here. Bounds are passed on as bounds.

Data set [1] relates to CLL B lymphocytes (CD19+/CD5+). Particulars: for Effect of pre-incubation on PKHB1-mediated cell death in CLL cells: added 30 min before PKHB1 200 μM, BAPTA 5 mM, BAPTA-AM 20 μM, 2-APB 60 μM, dantrolene 40 μM, U73122 200 nM, hSIRPα-Fc 15 μg/ml; for Cytotoxicity / PCD in CLL cells (Annexin-V and PI co-positivity): 200-μM peptides, 2 h of treatment (Fig 1D, 1E). Here is the method:
(§1) Mononuclear cells were purified from blood samples using a standard Ficoll-Hypaque gradient, and B cells were positively or negatively selected by magnetic microbeads coupled either to an anti-CD19 monoclonal antibody (positive selection) or to anti-CD16,-CD3, and-CD14 monoclonal antibodies (negative depletion) (Miltenyi Biotech). […] B lymphocytes, MEC-1, and M210B4 bone marrow stromal cells (ATCC) were cultured in complete medium (RPMI 1640 supplemented with 10% fetal calf serum, 2 mM L-glutamine, and 100 U/ml penicillin-streptomycin). In selected experiments, CLL cells were cultured in Ca^2+-free medium (RPMI 1640 without calcium, supplemented with dialyzed 10% fetal calf serum) prior to the induction of cell death.
(§2) Annexin-V-APC (0.1 μg/ml; BD Biosciences) was used for the assessment of phosphatidylserine exposure, propidium iodide (PI, 0.5 μg/ml) for cell viability analysis, and tetramethylrhodamine ethyl ester (TMRE, 20 nM) for mitochondrial transmembrane potential (ΔΨm) quantification. PCD was recorded in a FACSCanto II (BD Biosciences) in the total population (10,000 cells), and data were analyzed using FlowJo software. Chymotrypsin-like serine protease (serpase) or caspase cytofluorometric detection was performed with SerPase or Caspase activity kits from Imgenex (IMI-2301 and IMI-2315). Residual and leukemic B cells from CLL patients were discriminated from the mononuclear blood fraction by double labeling with anti-CD19 PerCP-Cyc5.5 (clone SJ25C1; BD Biosciences) and anti-CD5-PE-Cy7 mAb (clone L17F12; BD Biosciences). T cells from CLL patients were identified by a double anti-CD19 PerCP-Cyc5.5 and anti-CD3-PE-Cy7 (clone SK7; BD Biosciences) staining. Calreticulin cell surface exposure was recorded with anti-calreticulin-PE (clone FMC75; Assay Designs). […] A QuantiBRITE flow cytometry system (BD Biosciences) was used to assess the number of CD47 molecules expressed on normal and CLL B lymphocytes.
To induce PCD, 1 × 10^6 cells/ml were treated for 2 h with PKHB1 (200 μM), 4N1K (300 μM), 4NGG (300 μM), or an anti-CD47 monoclonal antibody ([…], clone B6H12 in soluble or immobilized conditions). To provide pro-survival microenvironment signals, CLL cells were pre-incubated with sCD40L (5 μg/ml) and IL-4 (20 ng/ml) or co-cultured with the M210B4 bone marrow stromal cell line (ATCC) before death was induced. To control for caspase-dependent apoptosis, cells were incubated for 12 h with etoposide (250 μM). For the inhibition assays, BAPTA-AM (20 μM); BAPTA (5 mM); Ru360 (750 nM); dantrolene (40 μM); 2-aminoethoxydiphenyl borate (2-APB, 60 μM); U73122 (200 nM); the broad spectrum caspase inhibitors Q-VD-OPh (QVD, 10 μM) and z-VAD-FMK (50 μM); the specific caspase inhibitors z-DEVD-FMK (50 μM, caspase-3/7), z-LEHD-FMK (50 μM, […]), and z-IETD-FMK (50 μM, […]); the serpase inhibitor TPCK (20 μM); or the fusion protein hSIRPα-Fc (15 μg/ml) was added 30 min before inducing PCD.

A short description of data set [2]: Peptide degradation assay in human serum (HPLC). Format: in vitro ADME. As to conditions: peptide 10 mg/ml in 1:4 human serum/RPMI 1640, 37°C, absorbance 220 nm. Here is the method: 4N1K or PKHB1 (10 mg/ml), diluted in a 1:4 human serum/RPMI 1640 mixture, was incubated at 37°C for different lengths of time, then mixed with ethanol and 5 ml of 1 M NaOH and incubated at 4°C for at least 15 min to precipitate serum proteins. The supernatant was collected and injected in an HPLC system, and the soluble peptide was eluted by a linear gradient of 5% to 50% ACN (0.1% [v/v] TFA in acetonitrile) in aqueous 0.1% (v/v) TFA. The concentration of the peptide was calculated by the integration of the absorbance at 220 nm as a function of the retention time.

The next data set concerns MEC-1 cells. The experiment in a line: Cell death by Annexin-V/PI in MEC-1 cells. Format: cell-based, human. As to conditions: PKHB1 200 μM, 2 h; etoposide 250 μM, 12 h (S7, S8 Figs). Here is the method: as §1
Annexin-V-APC (0.1 μg/ml; BD Biosciences) was used for the assessment of phosphatidylserine exposure, propidium iodide (PI, 0.5 μg/ml) for cell viability analysis, and tetramethylrhodamine ethyl ester (TMRE, 20 nM) for mitochondrial transmembrane potential (ΔΨm) quantification. PCD was recorded in a FACSCanto II (BD Biosciences) in the total population (10,000 cells), and data were analyzed using FlowJo software. […] Calreticulin cell surface exposure was recorded with anti-calreticulin-PE (clone FMC75; Assay Designs). […]

For a further data set, the system named is CLL cells. Nature of the data set: Caspase activity (FAM caspase detection kit) in CLL cells. Particulars: PKHB1 200 μM, 2 h; etoposide 250 μM, 12 h; representative CLL donor (Fig 2G). Format: cell-based, human.
A further data set has as its system MEC-1 tumors. The experiment in a line: CLL-xenograft model: MEC-1 tumors in NSG mice. Format: in vivo, mouse (NOD/scid gamma). As to conditions: weekly intraperitoneal injection; n = 8 per group (Fig 7C). How it is done:
In the CLL-xenograft model, MEC-1 cells (3 × 10^6) were injected subcutaneously into NOD/scid gamma (NSG) mice. When the tumor volume reached 100 mm^3, mice received intraperitoneal injections of PBS, PKHB1, or 4N1K (200 μg in 200 μl of PBS) once a week. Tumor size was measured with a caliper, and tumor volume was calculated using the formula (length × width^2)/2 and expressed in cubic millimeters. Alternatively, at 28 d after the engraftment, XenoLight RediJect 2-DG 750 Probe (Caliper) was injected into the retro-orbital sinus to visualize tumor glucose uptake, which reflects cell proliferation. Fluorescence was measured using an in vivo imaging system FX Pro (Kodak), and pictures were analyzed with Carestream Molecular Imaging software.
To determine hemoglobin levels, tumors were excised from euthanized mice, weighed, and homogenized in PBS. After centrifugation, formic acid was added to the supernatant, and the hemoglobin concentration was calculated based on the absorbance at 405 nm.
To assess PCD, calreticulin exposure, and PLCγ1-Y783, dissociated tumors were digested in medium containing Liberase-TL (Roche), DNase-I (Calbiochem), and Collagenase-IV (Life Technologies). Single-cell suspension, obtained by filtering through a […] cell strainer, was analyzed by flow cytometry.

The nature of data set [3]: Mice toxicity studies (hematology, kidney and liver histology). Format: in vivo, mouse (NSG. As to conditions: weekly intraperitoneal injection, 10 mg/kg, 3 wk, NSG or C57BL/6 mice (S9 Fig). Here is the method: In mice toxicity studies, we used the same injection protocol as in xenografted NSG mice. The hematological parameters were monitored in blood drawn from the retro-orbital plexus from either vehicle- (PBS) or PKHB1-treated wild-type mice (C57BL/6) with an MS9–5 analyzer (Melet Schloesing). Kidneys and livers (24 h after the third injection of PBS or PKHB1) were fixed and embedded in paraffin. Paraffin sections ([…] thick) of kidney and liver were deparaffinized and rehydrated before staining with periodic acid—Schiff and hematoxylin-eosin, respectively.

The next data set deals with CD19-/CD3+ T cells. Nature of the data set: Cell death by Annexin-V/PI in T cells of CLL patients. Format: cell-based, human. Particulars: 200 μM, 2 h; n = 8 (Fig 1G). Here is the method: as §2, with “lymphocytes. […]” for “lymphocytes.”
Data set [4] relates to CD19+/CD5- B cells (residual B cells). Nature of the data set: Cell death by Annexin-V/PI in residual B cells of CLL patients. Particulars: 200 μM, 2 h; n = 20 (Fig 1G). Format: cell-based, human. Here is the method:
as §2, with “lymphocytes. […]” for “lymphocytes.”

The target of data set [5] is CD47 (Homo sapiens, UniProt Q08722). The experiment in a line: Binding to CD47 (fluorescence polarization, isothermal titration calorimetry, microscale thermophoresis). As to conditions: isothermal titration calorimetry and microscale thermophoresis binding assays (methods per ref 82), read-out: Dissociation constant (Kd) to CD47. The source says: Supplementary file pmed.1001796.s002.tif: S2 Fig Primary structure of 4NGG, 4N1K, and PKHB1. In 4NGG, the two central valines of 4N1K were replaced by glycines (highlighted in red). In PKHB1, the N- and C-terminal lysines of 4N1K were replaced with their D counterparts (highlighted in green). […] (TIF) Click here for additional data file.
Chain of CD47 (Homo sapiens, UniProt Q08722) (Q08722 19-323): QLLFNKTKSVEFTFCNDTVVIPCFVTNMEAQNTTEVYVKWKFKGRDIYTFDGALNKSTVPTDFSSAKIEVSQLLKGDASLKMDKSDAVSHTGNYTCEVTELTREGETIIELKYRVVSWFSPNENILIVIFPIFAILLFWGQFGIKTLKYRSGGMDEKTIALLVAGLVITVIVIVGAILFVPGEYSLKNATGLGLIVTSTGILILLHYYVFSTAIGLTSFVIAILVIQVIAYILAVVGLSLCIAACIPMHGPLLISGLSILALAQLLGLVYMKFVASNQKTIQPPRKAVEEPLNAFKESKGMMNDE

Data set [6] deals with T1, CD47 (UniProt Q08722 19-323).
T1 construct: CD47; in the cell death assays it is the endogenous CD47 on human CLL B cells; the CD47 preparation is not described; also called cell surface receptor CD47
T1 sequence (Q08722 19-323): as above
Nature of the data set: fluorescence polarisation + ITC + MST; not told; one Kd is printed for each peptide for the three methods together; the legend refers to ref. 82. In general terms: Fluorescence polarisation rises when a labelled molecule tumbles more slowly, as on binding a larger partner.

Take `CC(=O)OCOC(=O)CN(CC(=O)OCOC(C)=O)c1ccccc1OCCOc1ccccc1N(CC(=O)OCOC(C)=O)CC(=O)OCOC(C)=O` [BAPTA-AM]: the “Effect of pre-incubation on PKHB1-mediated cell death in CLL cells” value (shortened to “Effect of pre-incubation”) in data set [1] (2 h) is “significantly decreased”. Take `CSCC[C@H](NC(=O)[C@@H](NC(=O)[C@@H](NC(=O)[C@H](Cc1ccc(O)cc1)NC(=O)[C@H](Cc1ccccc1)NC(=O)[C@H](CCCNC(=N)N)NC(=O)[C@@H](N)CCCCN)C(C)C)C(C)C)C(=O)N[C@@H](Cc1c[nH]c2ccccc12)C(=O)N[C@@H](CCCCN)C(=O)N[C@@H](CCCCN)C(=O)O` [4N1K]: the metabolised at 1 h, 10 mg/ml in data set [2] (human serum diluted 1:4 in RPMI 1640, 1-h incubation, serum proteins precipitated with ethanol/NaOH, read-out: Peptide degraded in human serum) is over 90%. The “Cytotoxicity / PCD in CLL cells (Annexin-V and PI co-positivity)” value in data set [1] is on record as ~ 25%. For the molecule `O=C1CN(/N=C/c2ccc(-c3ccc([N+](=O)[O-])cc3)o2)C(O)=N1` [dantrolene], in data set [1] (2 h), the “Effect of pre-incubation” value is given as “significantly decreased”. As for `COc1cc([C@@H]2c3cc4c(cc3[C@@H](O[C@@H]3O[C@@H]5CO[C@@H](C)O[C@H]5[C@H](O)[C@H]3O)[C@H]3COC(=O)[C@H]23)OCO4)cc(OC)c1O` [etoposide], the “Cell death response of MEC-1 cells (dysfunctional TP53)” value in the data set with MEC-1 cells is “resistant to etoposide treatment”. Besides, in the data set on CLL cells, the “Activated caspases, positive cells” value is ~ 47%. For the same molecule, the “Cell death response with microenvironment survival signals (sCD40L + IL-4 or M210B4 bone marrow stromal cells)” value in data set [1] (PKHB1 200 μM, 2 h, etoposide 250 μM, 12 h, n = 8 patients (Fig 2B)) is “significantly diminished”. As for `CSCC[C@H](NC(=O)[C@@H](NC(=O)[C@@H](NC(=O)[C@H](Cc1ccc(O)cc1)NC(=O)[C@H](Cc1ccccc1)NC(=O)[C@H](CCCNC(=N)N)NC(=O)[C@H](N)CCCCN)C(C)C)C(C)C)C(=O)N[C@@H](Cc1c[nH]c2ccccc12)C(=O)N[C@@H](CCCCN)C(=O)N[C@H](CCCCN)C(=O)O` [PKHB1], in [2] (long-term incubation), the “Degradation during long-term incubation in human serum” value was “not degraded”. In the data set on MEC-1 tumors, the “Anemia (hemoglobin levels within the engrafted tumors)” value is “did not provoke anemia”. Besides, the “Blood, liver, kidney toxicity” value in data set [3] is “no toxic effect; also recorded: No blood, liver, or kidney toxicity”. Moreover, the “Cytotoxicity in T cells of CLL patients” value in the data set on CD19-/CD3+ T cells is ~ 10%. Further, the “Cytotoxicity / PCD in CLL cells (Annexin-V and PI co-positivity)” value in data set [1] was ~ 49%. In addition, the “Cytotoxicity in residual CD5- B lymphocytes of CLL patients” value in [4] is on record as ~ 5%. Turning to `NCCOB(c1ccccc1)c1ccccc1` [2-APB, 2-aminoethoxydiphenyl borate], in [1] (2 h), the “Effect of pre-incubation” value is recorded as “significantly decreased”.

As to `COc1ccc2c(c1)CC[C@@H]1[C@@H]2CC[C@]2(C)[C@@H](NCCCCCCN3C(=O)C=CC3=O)CC[C@@H]12` [U73122], the “Effect of pre-incubation” value in data set [1] (2 h) is “significantly decreased PCD”. On the same count and under the same terms, in the case of `O=C(O)CN(CC(=O)O)c1ccccc1OCCOc1ccccc1N(CC(=O)O)CC(=O)O` [BAPTA] it was “abolished”. By Kd is commonly meant a measure of binding affinity in units of concentration. Turning to KRFYGGMWKK [4NGG], the dissociation constant (Kd) at CD47 [5] is 1000 µM.

B1: 4N1K (peptide)
peptide: KRFYVVMWKK
notes: N-terminal lysine introduced to improve solubility, not part of thrombospondin-1; stretch of the C-terminal domain of thrombospondin-1 (TSP1); C-terminal lysine introduced to improve solubility, not part of thrombospondin-1; also called K-R-F-Y-V-V-M-W-K-K; TSP1-derived decapeptide; source: synthetic peptide (solid-phase synthesis, purified by reverse phase HPLC, purity greater than 95%)
Consider B1, for which, in the data set with CD47 [6], the Kd was 1.5 µM.

B2: PKHB1 (peptide)
peptide: KRFYVVMWKK
modifications: D-lysine at the N-terminus and D-lysine at the C-terminus (printed as lower-case k)
notes: N-terminal lysine, not part of thrombospondin-1 (introduced in 4N1K to improve solubility); here the D analogue; stretch of the C-terminal domain of thrombospondin-1 (TSP1); C-terminal lysine, not part of thrombospondin-1 (introduced in 4N1K to improve solubility); 4N1K with its N- and C-terminal lysines replaced by their D counterparts; also called k-R-F-Y-V-V-M-W-K-k; source: synthetic peptide …
Turning to B2, the Kd with CD47 [6] turned out to be 0.4 µM.
